The subject of assay [1] is PTL-1 (DNA, aptamer) GACGACGGCCAAGCTAACGGCTGCTAAGCATGTGGAGTCGTC
As to the kind of experiment: ThT fluorescence displacement. As to conditions: 150 mM NaCl, 5 mM MgCl2 (main text; supplement: 2.0 mM MgCl2); 10 mM MES (supplement: 20 mM), pH 6.0; ThT displaced; tested at 200 μM.

Assay [2] has the same test system. The assay is described as follows: ThT fluorescence. As to conditions: 150 mM NaCl, 5 mM MgCl2 (main text; supplement: 2.0 mM MgCl2); 10 mM MES (supplement: 20 mM), pH 6.0; 1.0 μM aptamer, 2.0 μM ThT; described as non-specific binding.
For assay [3], the system named is PTL-1c (DNA, aptamer) GACGACGGCCAAGAATCCGGCTGCTAAGCATGTGGAGTCGTC
The assay is described as follows: ITC. As to conditions: 150 mM NaCl, 5 mM MgCl2 (main text; supplement: 2.0 mM MgCl2); 10 mM MES (supplement: 20 mM), pH 6.0, 25 °C; typically 1.0 mM PTL in syringe.

Assay [4] relates to PTL-1 (DNA, aptamer) GACGACGGCCAAGCTAACGGCTGCTAAGCATGTGGAGTCGTC
The assay is described as follows: ITC. To be noted: 150 mM NaCl, 5 mM MgCl2 (main text; supplement: 2.0 mM MgCl2); 10 mM MES (supplement: 20 mM), pH 6.0, 25 °C; 20 μM aptamer.

Assay [5] relates to PTL-1a (DNA, aptamer) GACGACTCCAAGAATCCGGCTGCTAAGCATGTGGAGTCGTC
As to the kind of experiment: ITC. To be noted: 150 mM NaCl, 5 mM MgCl2 (main text; supplement: 2.0 mM MgCl2); 10 mM MES (supplement: 20 mM), pH 6.0, 25 °C; typically 1.0 mM PTL in syringe.

Assay [6] deals with PTL-1b (DNA, aptamer) GACGACGGCGAAGCTAACGGCTGCTAAGCATGTCGAGTCGTC
The assay is described as follows: ITC. To be noted: 150 mM NaCl, 5 mM MgCl2 (main text; supplement: 2.0 mM MgCl2); 10 mM MES (supplement: 20 mM), pH 6.0, 25 °C; typically 1.0 mM PTL in syringe.

Assay [7] concerns PTL-1 (DNA, aptamer) GACGACGGCCAAGCTAACGGCTGCTAAGCATGTGGAGTCGTC
The assay is described as follows: ThT fluorescence displacement titration. To be noted: 150 mM NaCl, 5 mM MgCl2 (main text; supplement: 2.0 mM MgCl2), 10 mM MES (supplement: 20 mM), pH 6.0, ThT 2.0 μM displaced, 1.0 μM aptamer.

Structures are written as SMILES.

Consider `C=C1[C@@H](O)[C@@H]2O[C@]3(CC[C@H](/C=C/[C@@H](C)[C@@H]4CC(C)=C[C@@]5(O[C@H](C[C@@](C)(O)C(=O)O)CC[C@H]5O)O4)O3)CC[C@H]2O[C@@H]1[C@@H](O)C[C@H](C)[C@H]1O[C@@]2(CCCCO2)CC[C@H]1C`, for which the binding entry in assay [1] is “no”.

On to `CC1(C)S[C@@H]2[C@H](NC(=O)Cc3ccccc3)C(=O)N2[C@H]1C(=O)O`, for which the binding result in assay [1] is listed as “no”.

Turning to `CC1(C)S[C@@H]2[C@H](NC(=O)[C@H](N)c3ccccc3)C(=O)N2[C@H]1C(=O)O`, in assay [1], the binding entry is reported as “no”.

Take `CCCC[C@@H](C)[C@@H](OC(=O)C[C@@H](CC(=O)O)C(=O)O)[C@H](C[C@@H](C)C[C@H](O)CCCC[C@@H](O)C[C@H](O)[C@H](C)N)OC(=O)C[C@@H](CC(=O)O)C(=O)O`: the binding entry in assay [1] is “no”.

For the molecule `COc1cc(NS(=O)(=O)c2ccc(N)cc2)nc(OC)n1`, the binding entry in assay [1] was “no”.

With `CS(=O)(=O)c1ccc([C@@H](O)[C@@H](CO)NC(=O)C(Cl)Cl)cc1`, the binding result in assay [1] was “no”.

`C[C@@H]1C[C@H]2[C@@H]3CCC4=CC(=O)C=C[C@]4(C)[C@@]3(F)[C@@H](O)C[C@]2(C)[C@@]1(O)C(=O)CO`: the binding entry in assay [1] is “no”.

As for `C[C@@H]1Cc2c(Cl)cc(C(=O)N[C@@H](Cc3ccccc3)C(=O)O)c(O)c2C(=O)O1`, in assay [1], the binding entry is recorded as “no”.

As for `C[C@H]1CCCC(=O)CCC/C=C/c2cc(O)cc(O)c2C(=O)O1`, in assay [1], the binding entry is recorded as “no”.

Consider `Cc1ccc2c(c1)sc(-c1ccc(N(C)C)cc1)[n+]2C`, for which, in assay [2], the binding result is on record as “yes”.

As for `Cc1ncc([N+](=O)[O-])n1CCO`, the binding result in assay [1] is given as “no”.

As to `NC(=O)N1c2ccccc2C=Cc2ccccc21`, the binding entry in assay [1] was “no”.

On to `Nc1ccc(S(=O)(=O)Nc2cnc3ccccc3n2)cc1`, for which the binding entry in assay [1] is reported as “no”.

For the molecule `O=C(N[C@H](CO)[C@H](O)c1ccc([N+](=O)[O-])cc1)C(Cl)Cl`, in assay [1], the binding entry is recorded as “no”.

One may read the Kd as the equilibrium constant for the complex coming apart. A higher Kd goes with a looser complex. Broadly, the apparent Kd is a dissociation constant that holds for the conditions of the assay. On to `O=C1C=C2C(=CCOC2O)O1` (stereo not shown), for which the binding result in assay [3], in assay [5] and in assay [6] was “no” each time. The Kd in assay [4] was 12.5 µM. For the same molecule, in assay [7], the “apparent Kd” value turned out to be 18.4 µM.

Values taken from article PMC12745320 (2025).
